{"source": "patent US10816493B2", "about": "“Electrical measurement method, electrical measurement device, and blood condition analysis system” (SONY CORPORATION, priority 2015, dated 2020)", "tested_on": "blood coagulation", "test": "Permittivity measurement over time of blood samples with calcium chloride added (coagulation start-indicating parameter)", "type": "cell-based", "experimental": "Experimental Example 2 was performed to determine whether and how the results of measurement of an electrical characteristic differ between a case using a compound having an inhibitory effect on blood sedimentation and having no influence on the electrical characteristic parameter used for analysis and a case using a compound having an influence on the electrical characteristic parameter. In this experimental example, permittivity was used as an example of the electrical characteristic. In addition, a coagulation start-indicating parameter for use in blood coagulation analysis was focused on as an example of the electrical characteristic parameter for use in analysis. Furthermore, in Experimental Example 2, measurement was performed on blood samples containing citric acid added as an anticoagulant with calcium chloride added as a blood coagulation […].\nCarboxymethyl dextran as an example of the blood sedimentation inhibitor was dissolved at a concentration of 10% w/v in PBS. The carboxymethyl dextran-containing PBS solution was added in an amount of 10% to a whole blood sample with a high blood sedimentation rate, so that a sample of Example 3 was obtained.\nA control sample was prepared by adding a blood sedimentation inhibitor-free PBS in an amount of 10% to the same whole blood sample as in Example 3.\nBetaine was dissolved at a concentration of 10% w/v in PBS. The resulting blood sedimentation inhibitor-containing PBS solution was added in an amount of 10% to a blood sample with sedimentation abnormalities, prepared by a method similar to that in Experimental Example 1, so that a sample of Comparative Example 3 was obtained.\nA control sample was prepared by adding a blood sedimentation inhibitor-free PBS in an amount of 10% to a blood sample with sedimentation abnormalities, prepared by a method similar to that in Experimental Example 1.\nThe permittivity of 180 μL of each of the samples of Example 3, Control for Example, Comparative Example 3, and Control for Comparative Example, prepared as described above, was measured at a frequency of 1 MHz over time."}
{"smiles": "C[N+](C)(C)CC(=O)O", "note": "[Comparative Example 3, Betaine]", "values": [{"measurement": "analysis of blood coagulation start time using a parameter indicating the time at which coagulation started", "setting": "10% w/v in PBS added in an amount of 10%, citric acid plus calcium chloride, permittivity at 1 MHz", "value": "impossible to extract any parameter indicating the coagulation start time"}, {"measurement": "signal behavior compared with the control sample", "setting": "10% w/v in PBS added in an amount of 10%, citric acid plus calcium chloride, permittivity at 1 MHz, FIGS. 6 and 7", "value": "completely different from that of the control sample"}, {"measurement": "adverse effect on the analysis (usability as blood sedimentation inhibitor)", "setting": "blood coagulation analysis based on permittivity", "value": "has an adverse effect on the analysis"}, {"measurement": "inhibitory effect on blood sedimentation (in words)", "setting": "suggested from results of Experimental Example 2", "value": "have an inhibitory effect on blood sedimentation"}]}
